Results: the kinase profiling compilation of Christmann-Franck et al. (2016)

Experiments:
CSK (human) = CSK (human) (UniProt P41240); assay: KINOMEscan competition binding; conditions: compound 10.0 µM
CAMK1G (human) = CAMK1G (human) (UniProt Q96NX5); assay: KINOMEscan competition binding; conditions: compound 10.0 µM
CDK14 (human) = CDK14 (human) (UniProt O94921); assay: KINOMEscan competition binding; conditions: compound 10.0 µM
[1] = tested on: KIT (human), P10721 [V559D/V654A]; assay: KINOMEscan competition binding; conditions: compound 10.0 µM
LATS2 (human) = LATS2 (human) (UniProt Q9NRM7); assay: KINOMEscan competition binding; conditions: compound 10.0 µM
CDK19 (human) = CDK19 (human) (UniProt Q9BWU1); assay: KINOMEscan competition binding; conditions: compound 10.0 µM
ERBB4 (human) = ERBB4 (human) (UniProt Q15303); assay: KINOMEscan competition binding; conditions: compound 10.0 µM
ANKK1 (human) = ANKK1 (human) (UniProt Q8NFD2); assay: KINOMEscan competition binding; conditions: compound 10.0 µM
EGFR (human) = EGFR (human) (UniProt P00533); assay: KINOMEscan competition binding; conditions: compound 10.0 µM
EPHA3 (human) = EPHA3 (human) (UniProt P29320); assay: KINOMEscan competition binding; conditions: compound 10.0 µM
SIK1 (human) = SIK1 (human) (UniProt P57059); assay: KINOMEscan competition binding; conditions: compound 10.0 µM
MYO3A (human) = MYO3A (human) (UniProt Q8NEV4); assay: KINOMEscan competition binding; conditions: compound 10.0 µM
PDGFRB (human) = PDGFRB (human) (UniProt P09619); assay: KINOMEscan competition binding; conditions: compound 10.0 µM
LYN (human) = LYN (human) (UniProt P07948); assay: KINOMEscan competition binding; conditions: compound 10.0 µM
MYLK2 (human) = MYLK2 (human) (UniProt Q9H1R3); assay: KINOMEscan competition binding; conditions: compound 10.0 µM
STK36 (human) = STK36 (human) (UniProt Q9NRP7); assay: KINOMEscan competition binding; conditions: compound 10.0 µM
MAP3K3 (human) = MAP3K3 (human) (UniProt Q99759); assay: KINOMEscan competition binding; conditions: compound 10.0 µM
[2] = target: JAK1 JH1 catalytic (human) (UniProt P23458); assay: KINOMEscan competition binding; conditions: compound 10.0 µM
PTK2B (human) = PTK2B (human) (UniProt Q14289); assay: KINOMEscan competition binding; conditions: compound 10.0 µM
CAMK1D (human) = CAMK1D (human) (UniProt Q8IU85); assay: KINOMEscan competition binding; conditions: compound 10.0 µM
[3] = tested on: ABL1 (human), P00519 [F317I]; assay: KINOMEscan competition binding; conditions: compound 10.0 µM
TNK1 (human) = TNK1 (human) (UniProt Q13470); assay: KINOMEscan competition binding; conditions: compound 10.0 µM
STK35 (human) = STK35 (human) (UniProt Q8TDR2); assay: KINOMEscan competition binding; conditions: compound 10.0 µM
NEK6 (human) = NEK6 (human) (UniProt Q9HC98); assay: radiometric filter-binding kinase assay
Chain of NEK6 (human) (Q9HC98 whole entry, looked up): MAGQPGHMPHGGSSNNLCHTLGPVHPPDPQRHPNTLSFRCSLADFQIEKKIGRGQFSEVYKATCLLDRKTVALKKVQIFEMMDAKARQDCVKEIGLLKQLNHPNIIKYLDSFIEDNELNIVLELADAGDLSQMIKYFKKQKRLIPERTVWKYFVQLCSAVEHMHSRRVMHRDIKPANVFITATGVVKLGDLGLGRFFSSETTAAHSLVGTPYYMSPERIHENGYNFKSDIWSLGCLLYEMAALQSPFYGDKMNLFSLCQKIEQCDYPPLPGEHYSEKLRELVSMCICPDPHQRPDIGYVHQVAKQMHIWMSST

MST4 (human) = MST4 (human) (UniProt Q9P289); assay: radiometric filter-binding kinase assay
SRPK1 (human) = SRPK1 (human) (UniProt Q96SB4); assay: radiometric filter-binding kinase assay
MAPK1 (human) = MAPK1 (human) (UniProt P28482); assay: radiometric filter-binding kinase assay
IGF1R (human) = IGF1R (human) (UniProt P08069); assay: radiometric filter-binding kinase assay
Chain of IGF1R (human) (P08069 whole entry, looked up): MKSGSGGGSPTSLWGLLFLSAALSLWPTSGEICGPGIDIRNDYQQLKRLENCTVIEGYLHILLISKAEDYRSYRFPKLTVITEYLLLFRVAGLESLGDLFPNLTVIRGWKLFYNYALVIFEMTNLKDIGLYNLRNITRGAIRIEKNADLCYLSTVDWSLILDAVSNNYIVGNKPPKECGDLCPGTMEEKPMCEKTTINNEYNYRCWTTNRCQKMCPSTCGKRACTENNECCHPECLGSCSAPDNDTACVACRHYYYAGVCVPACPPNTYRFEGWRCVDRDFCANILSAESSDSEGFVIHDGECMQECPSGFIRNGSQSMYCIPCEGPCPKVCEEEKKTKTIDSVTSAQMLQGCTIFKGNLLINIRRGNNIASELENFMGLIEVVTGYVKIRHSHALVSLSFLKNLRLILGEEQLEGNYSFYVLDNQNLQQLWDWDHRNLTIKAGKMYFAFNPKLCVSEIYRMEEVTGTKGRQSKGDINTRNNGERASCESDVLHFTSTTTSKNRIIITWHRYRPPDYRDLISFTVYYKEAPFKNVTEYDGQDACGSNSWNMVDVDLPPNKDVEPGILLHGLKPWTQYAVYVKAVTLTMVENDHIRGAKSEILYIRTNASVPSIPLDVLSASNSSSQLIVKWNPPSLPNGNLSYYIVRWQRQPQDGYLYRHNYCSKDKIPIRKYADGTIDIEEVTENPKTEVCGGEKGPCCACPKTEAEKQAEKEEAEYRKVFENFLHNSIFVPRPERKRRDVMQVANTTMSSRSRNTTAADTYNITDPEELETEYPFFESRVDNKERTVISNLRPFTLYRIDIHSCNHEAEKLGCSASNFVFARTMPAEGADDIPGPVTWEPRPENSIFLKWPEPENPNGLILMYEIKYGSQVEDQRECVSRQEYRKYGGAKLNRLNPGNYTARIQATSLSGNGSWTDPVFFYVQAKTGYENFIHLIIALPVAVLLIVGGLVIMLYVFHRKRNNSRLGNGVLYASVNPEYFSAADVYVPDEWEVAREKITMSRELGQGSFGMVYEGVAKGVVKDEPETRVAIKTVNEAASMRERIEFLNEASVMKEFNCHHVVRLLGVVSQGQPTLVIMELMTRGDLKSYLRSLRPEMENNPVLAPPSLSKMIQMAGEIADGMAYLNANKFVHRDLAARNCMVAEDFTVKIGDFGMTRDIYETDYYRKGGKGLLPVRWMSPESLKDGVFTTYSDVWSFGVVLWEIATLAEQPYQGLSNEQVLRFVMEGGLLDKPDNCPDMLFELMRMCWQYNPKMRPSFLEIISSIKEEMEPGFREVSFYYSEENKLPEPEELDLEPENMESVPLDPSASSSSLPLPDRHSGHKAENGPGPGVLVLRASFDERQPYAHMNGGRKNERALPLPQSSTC

TTK (human) = TTK (human) (UniProt P33981); assay: radiometric filter-binding kinase assay
PKN2 (human) = PKN2 (human) (UniProt Q16513); assay: radiometric filter-binding kinase assay
Chain of PKN2 (human) (Q16513 whole entry, looked up): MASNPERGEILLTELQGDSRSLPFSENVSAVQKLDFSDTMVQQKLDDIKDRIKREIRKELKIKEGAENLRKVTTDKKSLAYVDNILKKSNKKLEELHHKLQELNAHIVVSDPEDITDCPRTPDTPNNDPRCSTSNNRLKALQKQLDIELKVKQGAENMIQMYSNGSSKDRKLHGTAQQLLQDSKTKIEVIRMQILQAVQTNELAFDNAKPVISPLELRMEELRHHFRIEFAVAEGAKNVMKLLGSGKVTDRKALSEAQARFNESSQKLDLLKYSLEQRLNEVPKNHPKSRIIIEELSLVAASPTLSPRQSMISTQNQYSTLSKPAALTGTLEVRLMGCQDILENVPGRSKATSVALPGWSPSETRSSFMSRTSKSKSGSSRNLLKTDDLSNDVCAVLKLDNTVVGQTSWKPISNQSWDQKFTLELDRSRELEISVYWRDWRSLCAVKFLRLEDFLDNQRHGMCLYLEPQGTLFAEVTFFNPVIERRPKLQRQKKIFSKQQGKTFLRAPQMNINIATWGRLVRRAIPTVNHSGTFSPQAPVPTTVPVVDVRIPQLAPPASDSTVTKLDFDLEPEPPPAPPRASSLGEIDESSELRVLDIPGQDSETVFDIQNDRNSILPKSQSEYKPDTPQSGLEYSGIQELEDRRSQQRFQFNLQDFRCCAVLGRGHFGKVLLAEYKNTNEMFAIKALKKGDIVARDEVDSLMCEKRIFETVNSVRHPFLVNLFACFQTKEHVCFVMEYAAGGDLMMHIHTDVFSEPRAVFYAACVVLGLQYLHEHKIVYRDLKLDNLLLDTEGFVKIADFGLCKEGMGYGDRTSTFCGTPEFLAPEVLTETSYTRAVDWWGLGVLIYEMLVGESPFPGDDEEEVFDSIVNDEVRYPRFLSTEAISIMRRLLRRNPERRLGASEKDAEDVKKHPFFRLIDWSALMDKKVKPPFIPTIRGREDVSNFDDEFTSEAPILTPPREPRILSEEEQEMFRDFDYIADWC

MAP3K5 (human) = MAP3K5 (human) (UniProt Q99683); assay: radiometric filter-binding kinase assay
[4] = target: STK11 CAB39 STRADA (human) (UniProt Q9Y376+Q7RTN6+Q15831); assay: radiometric filter-binding kinase assay
Chain of STK11 CAB39 STRADA (human) (Q15831 whole entry, looked up): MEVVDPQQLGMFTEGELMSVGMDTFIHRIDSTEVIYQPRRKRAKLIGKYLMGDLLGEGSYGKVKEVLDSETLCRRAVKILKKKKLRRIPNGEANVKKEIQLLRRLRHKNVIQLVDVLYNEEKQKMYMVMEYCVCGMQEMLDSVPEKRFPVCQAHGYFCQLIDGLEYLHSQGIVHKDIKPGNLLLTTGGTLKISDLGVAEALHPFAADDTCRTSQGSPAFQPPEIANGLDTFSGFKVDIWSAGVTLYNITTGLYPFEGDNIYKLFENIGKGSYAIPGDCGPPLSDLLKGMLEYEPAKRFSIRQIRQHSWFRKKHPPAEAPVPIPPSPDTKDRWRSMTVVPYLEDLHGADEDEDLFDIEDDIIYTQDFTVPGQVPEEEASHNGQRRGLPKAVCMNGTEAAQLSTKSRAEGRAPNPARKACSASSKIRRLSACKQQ
Chain of STK11 CAB39 STRADA (human) (Q7RTN6 whole entry, looked up): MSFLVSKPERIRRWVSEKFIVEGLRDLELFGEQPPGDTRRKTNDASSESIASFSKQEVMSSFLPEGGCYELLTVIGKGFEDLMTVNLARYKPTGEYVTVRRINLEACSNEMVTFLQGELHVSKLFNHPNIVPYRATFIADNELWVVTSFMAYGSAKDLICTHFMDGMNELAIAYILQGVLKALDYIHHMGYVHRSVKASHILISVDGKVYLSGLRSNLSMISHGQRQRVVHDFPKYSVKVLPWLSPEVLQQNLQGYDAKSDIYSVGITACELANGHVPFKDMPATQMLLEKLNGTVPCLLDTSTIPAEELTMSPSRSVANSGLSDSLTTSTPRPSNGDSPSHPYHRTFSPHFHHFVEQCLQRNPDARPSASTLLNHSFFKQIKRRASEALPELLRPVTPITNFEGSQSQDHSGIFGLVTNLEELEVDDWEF
Chain of STK11 CAB39 STRADA (human) (Q9Y376 whole entry, looked up): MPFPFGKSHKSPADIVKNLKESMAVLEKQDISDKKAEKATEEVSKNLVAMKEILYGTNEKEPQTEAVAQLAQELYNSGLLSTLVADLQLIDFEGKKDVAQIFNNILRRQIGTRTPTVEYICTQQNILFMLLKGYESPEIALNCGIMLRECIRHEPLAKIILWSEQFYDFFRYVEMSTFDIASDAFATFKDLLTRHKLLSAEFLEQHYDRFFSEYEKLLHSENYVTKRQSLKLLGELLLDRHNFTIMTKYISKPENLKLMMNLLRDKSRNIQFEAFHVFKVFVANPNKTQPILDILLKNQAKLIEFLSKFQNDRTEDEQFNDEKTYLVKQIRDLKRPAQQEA

FGFR1 (human) = FGFR1 (human) (UniProt P11362); assay: radiometric filter-binding kinase assay
Chain of FGFR1 (human) (P11362 whole entry, looked up): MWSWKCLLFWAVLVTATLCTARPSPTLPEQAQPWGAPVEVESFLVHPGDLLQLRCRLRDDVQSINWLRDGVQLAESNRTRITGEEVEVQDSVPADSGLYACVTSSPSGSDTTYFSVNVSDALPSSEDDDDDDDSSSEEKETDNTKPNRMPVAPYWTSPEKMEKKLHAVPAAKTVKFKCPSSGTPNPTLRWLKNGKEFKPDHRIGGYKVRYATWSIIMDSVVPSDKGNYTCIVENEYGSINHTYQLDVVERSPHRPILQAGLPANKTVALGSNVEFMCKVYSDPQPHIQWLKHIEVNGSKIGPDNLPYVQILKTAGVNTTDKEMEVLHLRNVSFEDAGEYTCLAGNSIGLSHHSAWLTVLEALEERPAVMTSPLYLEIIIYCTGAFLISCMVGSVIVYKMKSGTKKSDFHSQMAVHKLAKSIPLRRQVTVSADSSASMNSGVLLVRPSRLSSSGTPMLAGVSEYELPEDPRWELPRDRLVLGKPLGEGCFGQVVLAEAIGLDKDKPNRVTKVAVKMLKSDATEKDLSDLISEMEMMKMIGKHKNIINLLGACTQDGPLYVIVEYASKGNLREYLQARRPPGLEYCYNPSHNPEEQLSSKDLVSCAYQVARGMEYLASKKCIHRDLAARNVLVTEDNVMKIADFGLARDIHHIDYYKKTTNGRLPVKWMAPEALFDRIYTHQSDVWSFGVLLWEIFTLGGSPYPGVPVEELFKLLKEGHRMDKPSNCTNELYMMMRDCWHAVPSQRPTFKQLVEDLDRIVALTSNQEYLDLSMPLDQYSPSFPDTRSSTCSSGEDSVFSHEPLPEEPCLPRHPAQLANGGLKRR

MAP2K6 (human) = MAP2K6 (human) (UniProt P52564); assay: radiometric filter-binding kinase assay
Chain of MAP2K6 (human) (P52564 whole entry, looked up): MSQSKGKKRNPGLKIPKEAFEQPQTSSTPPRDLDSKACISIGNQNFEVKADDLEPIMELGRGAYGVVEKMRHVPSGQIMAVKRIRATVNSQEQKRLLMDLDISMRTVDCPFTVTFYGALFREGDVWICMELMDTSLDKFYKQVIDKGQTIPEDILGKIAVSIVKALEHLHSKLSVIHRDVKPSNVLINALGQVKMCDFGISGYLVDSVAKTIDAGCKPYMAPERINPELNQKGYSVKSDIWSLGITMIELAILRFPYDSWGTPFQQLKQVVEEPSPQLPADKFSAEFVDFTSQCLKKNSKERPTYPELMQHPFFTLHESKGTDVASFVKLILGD

MAP2K2 (human) = MAP2K2 (human) (UniProt P36507); assay: radiometric filter-binding kinase assay

CCN1CCN(Cc2ccc(NC(=O)c3ccc(C)c(Oc4ccnc5[nH]ccc45)c3)cc2C(F)(F)F)CC1
kinase still bound, per cent of control (CSK (human)): 0.45%
kinase still bound, per cent of control (CAMK1G (human)): 20%
residual activity (CDK14 (human)): 0.4%
kinase still bound, per cent of control [1]: 2.7%
kinase still bound, per cent of control (LATS2 (human)): 13%
residual activity (CDK19 (human)): 0.1%
kinase still bound, per cent of control (ERBB4 (human)): 28%
kinase still bound, per cent of control (ANKK1 (human)): 23%
kinase still bound, per cent of control (EGFR (human)): 5.6%
kinase still bound, per cent of control (EPHA3 (human)): 3.4%
kinase still bound, per cent of control (SIK1 (human)): 5.3%
kinase still bound, per cent of control (MYO3A (human)): 6.4%
kinase still bound, per cent of control (PDGFRB (human)): 0%
kinase still bound, per cent of control (LYN (human)): 0.75%
kinase still bound, per cent of control (MYLK2 (human)): 8.4%
kinase still bound, per cent of control (STK36 (human)): 0.2%
kinase still bound, per cent of control (MAP3K3 (human)): 12%
kinase still bound, per cent of control [2]: 11%
kinase still bound, per cent of control (PTK2B (human)): 2.1%
kinase still bound, per cent of control (CAMK1D (human)): 6.2%
kinase still bound, per cent of control [3]: 0.05%
kinase still bound, per cent of control (TNK1 (human)): 0.35%
kinase still bound, per cent of control (STK35 (human)): 3%
residual activity (NEK6 (human); compound 0.1 µM): 104%
residual activity (NEK6 (human); compound 1.0 µM): 84.6%
residual activity (NEK6 (human); compound 10.0 µM): 73.5%
residual activity (MST4 (human); compound 0.1 µM): 95%
residual activity (MST4 (human); compound 1.0 µM): 78%
residual activity (MST4 (human); compound 10.0 µM): 32.1%
residual activity (SRPK1 (human); compound 0.1 µM): 102%
residual activity (SRPK1 (human); compound 1.0 µM): 97.1%
residual activity (SRPK1 (human); compound 10.0 µM): 73%
residual activity (MAPK1 (human); compound 0.1 µM): 101%
residual activity (MAPK1 (human); compound 1.0 µM): 102%
residual activity (MAPK1 (human); compound 10.0 µM): 106%
residual activity (IGF1R (human); compound 0.1 µM): 107%
residual activity (IGF1R (human); compound 1.0 µM): 84.8%
residual activity (IGF1R (human); compound 10.0 µM): 6.46%
residual activity (TTK (human); compound 0.1 µM): 91.2%
residual activity (TTK (human); compound 1.0 µM): 98.1%
residual activity (TTK (human); compound 10.0 µM): 66.1%
residual activity (PKN2 (human); compound 0.1 µM): 102%
residual activity (PKN2 (human); compound 1.0 µM): 93.3%
residual activity (PKN2 (human); compound 10.0 µM): 78.6%
residual activity (MAP3K5 (human); compound 0.1 µM): 111%
residual activity (MAP3K5 (human); compound 1.0 µM): 105%
residual activity (MAP3K5 (human); compound 10.0 µM): 76.5%
residual activity ([4]; compound 0.1 µM): 117%
residual activity ([4]; compound 1.0 µM): 107%
residual activity ([4]; compound 10.0 µM): 129%
residual activity (FGFR1 (human); compound 0.1 µM): 79.1%
residual activity (FGFR1 (human); compound 1.0 µM): 23.5%
residual activity (FGFR1 (human); compound 10.0 µM): 8.48%
residual activity (MAP2K6 (human); compound 0.1 µM): 118%
residual activity (MAP2K6 (human); compound 1.0 µM): 158%
residual activity (MAP2K6 (human); compound 10.0 µM): 133%
residual activity (MAP2K2 (human); compound 0.1 µM): 131%
residual activity (MAP2K2 (human); compound 1.0 µM): 116%
residual activity (MAP2K2 (human); compound 10.0 µM): 96.8%
